Measured values taken from US6417159B1 (Queen's University at Kingston, priority 1996, dated 2002).

Key:
[1] = system: embryonic 19 day rat DRG neurons; assay: NGF-mediated neurite growth by ED19 rat DRG neurons; assay type: cell-based
Experimental: Dissociated cells enriched for sensory neurons from DRG of ED8 chick or ED19 rat were prepared as described in detail previously (Sutter et al., 1979a). ED19 rat DRG dissociates were not pre-plated pror to bioassay. Cells were seeded into wells of Terasaki plates previously treated with poly-D-lysine at 700-900 per well in supplemented Ham's F12 medium with 2.5% fetal calf serum and NGF at concentrations between 0.04 and 40 pM. The cells were incubated with the additives as described at 37° C., 5% CO2, and scored at various times for neurite growth by counting all cells on the lower horizontal surface of the wells, which is approximately 15% of the surface area of the top of the tapered wells.
A Leitz Diavert inverted microscope with phase optics was used to score neurite growth. For both PC12 cells and sensory neurons, a neurite was scored as such if its calibre from origin to terminal was approximately the same and the length was equal to or greater than 1.5 cell body diameters.

[2] = system: PC12 cells; assay: Acid phosphatase assay of cell survival, PC12 cells; assay type: cell-based, rat; details: PC12 (high-TrkA), serum-free conditions
Experimental: (§1) This is a colorimetric assay which measures the lysosomal enzyme acid phosphatase to determine cell number (Connolly et al., 1986) modified by Ueda et al. (1994) for use with cultured neuronal cells. Medium was removed gently from PC12 or PC12^nnr5 cells cultured in 96 well plates and well were washed once with 200 μl PBS. Then 100 μl of buffer containing 0.1M sodium acetate pH 5.5, 0.1% TRITON™ X-100, and 10 mM p-nitrophenyl phosphate (Sigma 104 phosphatase substrate) was added to each well. Plates were placed in a 37° C., 5% CO2 incubator for 3 hours. The reaction was stopped by the addition of 10 μl/well of 1N sodium hydroxide and the colour development measured at 405 nm using a microplate reader (Titertek). The first column on each plate contained no cells (buffer only) and was used as a blank. The relationship between cell number and enzyme activity was linear over the range 1000 to 15,000 cells.
(§2) To exclude the possibility that the effects of R3 on neurite growth in the experiments described above were indirect and mediated by an influence on cell survival, PC12 and PC12^nnr5 cells were exposed to serum free conditions in the absence and presences of NGF, and in the absence and presence of R3. […] Nor was there any difference in NGF-mediated survival whether R3 exposure occurred before or at the same time as NGF exposure. […]

[3] = system: PC12^nnr5 cells; assay: Acid phosphatase assay of cell survival, PC12nnr5 cells; assay type: cell-based, rat; details: PC12nnr5 (low-TrkA), serum-free conditions
Experimental: as §1, §2

[4] = system: PC12 cells; assay: MTT assay of mitochondrial function; assay type: cell-based, rat
Experimental: A colorimetric assay measuring the number and respiratory activity of surviving cells (Mossman, 1983) was used to monitor the effect of the synthetic peptides on PC12 cells. Culture plates (96-233, Flow, flat bottom) were seeded with 4,000 cells per well and received treatment identical to the cells read for neurite formation. At the indicated times, the medium was removed from the wells with a Pasteur pipette and replaced with 110 μl of RPMI+10% fetal calf serum containing 0.45 mg·ml^−1 MTT (Sigma) and the plate were returned to a humidified, 5% CO2 incubator for 4 hours. 100 μl of 0.4N HCl in isopropanol was then added to each well with trituration (approximately 50 times) to solublize the formazan. The plates were read 10 minutes later in a flow Titertek Multiskan equipped with a 570 nm filter, and the optical density values obtained were corrected for cell-free blank. In each experiment, the values are the average of at least triplicate determinations normalized to its control. The MTT dye conversion was linear with number of viable cells over the range seeded, i.e. 2000 to 10,000 cells per well.

[5] = system: PC12^nnr5 cells; assay: Uptake of [125I]NGF into PC12nnr5 cells; assay type: cell-based, rat; details: 20 pM or 0.2 nM [125I]NGF; saturating R3
Experimental: PC12 cells were removed from culture dishes with CMF, washed, and incubated at a concentration of 10^6 per ml in Hepes-Krebs-Ringer (HKR) buffer buffer with 1 mg·ml^−1 BSA for 90 minutes at 37° C. in the presence of 40 pM [^125I]NGF in the absence and presence of excess unlabeled NGF, and in the absence and presence of R3 peptide. Aliquots of 100 μl were removed in replicates and mircocentrifuged at 10,000×g for 1 minute. Supernatants were removed, tips were cut from the microcentrifuge tube and counted in a gamma counter. Specific binding was defined as the difference between binding of the ligand in the absence and presence of unlabeled NGF, and fractional specific binding in the absence and presence of R3 peptide was compared. Studies of [^125I]NGF uptake into PC12 and PC12^nnr5 cells were carried out in the absence and presence of 10 μM R3 peptide and following a 24-hour exposure of PC12 cultures to 10 μM R3 peptide. Cells were eposed to 20 pM or 0.2 nM [^125I]NGF for periods of time up to 240 minutes (steady state) at 37° C. The cells were then briefly acid-washed as described by Bernd and Greene (1984), and aliquots were prepared for gamma counting as described. NGF was radioiodinated as described in Sutter et al. (1979b).

[6] = system: PC12 cells; assay: Basic fibroblast growth factor-mediated neurite growth by PC12 cells; assay type: cell-based, rat

LDALLAALRRIQR [R3]
Effect on NGF-mediated neurite growth, co-incubation, in words [1]: enhancing effect | Influence on NGF-mediated cell survival, in words [2]: no influence on NGF-mediated survival | Influence on NGF-mediated cell survival, in words [3]: no influence on NGF-mediated survival | Mitochondrial succinate dehydrogenase activity (MTT), in words [4]: not enhanced | Rates of [125I]NGF uptake, in words [5]: not influenced | Influence on basic fibroblast growth factor-mediated neurite growth, in words [6]: no influence
